In patent publication US20170253581A1, “SUBSTITUTED HETEROCYCLES AS c-MYC TARGETING AGENTS” (Northwestern University, priority 2016, published 2017):

Molecular target: Myc/Max binding to DNA (Homo sapiens, UniProt P01106)
Assay: Electrophoretic mobility shift assay (EMSA) of Myc/Max binding to DNA
Format: biochemical
Conditions: for remaining activity at 100 µM: read-out: Bound DNA (%) (100uM); for remaining activity at 50 µM: 50 uM test compound, read-out: Bound DNA (%) (50uM); for remaining activity at 200 µM: read-out: Bound DNA (%) (200uM)
Protocol: We also tested our best hit compound Min9 (NUCC-0176234) and newly synthesized analogs for effects of these compounds on Myc/Max binding to DNA in electrophoretic mobility shift assays (EMSAs). (See FIG. 5a and FIG. 5b). We expected the active compounds to impair Myc/Max binding to DNA. Several strucutural analogs of Min9 were tested over multiple doses for inhibiting Myc-DNA binding and we observed a dose-dependent inhibition. (See FIG. 5c).
Additional compounds were synthesized and tested in the EMSA assay at concentrations of 200 μM, 100 μM, and 50 μM.

Chain of Myc/Max binding to DNA (P01106 whole entry): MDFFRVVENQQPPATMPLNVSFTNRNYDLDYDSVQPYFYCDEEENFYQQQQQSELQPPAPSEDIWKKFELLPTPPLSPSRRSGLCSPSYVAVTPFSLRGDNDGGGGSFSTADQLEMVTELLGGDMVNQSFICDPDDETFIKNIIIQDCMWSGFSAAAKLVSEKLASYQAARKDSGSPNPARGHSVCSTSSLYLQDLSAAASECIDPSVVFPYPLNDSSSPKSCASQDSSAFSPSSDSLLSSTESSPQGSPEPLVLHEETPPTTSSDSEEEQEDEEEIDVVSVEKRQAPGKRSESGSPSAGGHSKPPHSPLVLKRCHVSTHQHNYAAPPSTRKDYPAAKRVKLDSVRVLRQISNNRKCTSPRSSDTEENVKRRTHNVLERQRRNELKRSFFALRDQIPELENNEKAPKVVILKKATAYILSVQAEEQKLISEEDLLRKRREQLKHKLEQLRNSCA

Compound	remaining activity at 100 µM (EMSA, 100 uM test compound)	also measured
Cc1[nH]nc(-c2ccc(OCc3ccc(Cl)cc3)cc2O)c1-c1ccccc1 [compound 0198298]	88%	
Cc1ccc(C)c(Oc2cn(C)nc2-c2ccc(OCc3ccc4ccccc4c3)cc2O)c1 [compound 0196291]	110%	
CCc1ccc(Oc2c[nH]nc2-c2ccc(OCc3ccc(F)cc3)cc2O)cc1 [NUCC-0176257]		remaining activity at 200 µM (EMSA, 200 uM test compound): 7%
Cn1nc(-c2ccc(OCc3ccc(Cl)cc3)cc2O)c(-c2ccc(F)cc2)c1C(F)(F)F [compound 0196348]	9%	
Oc1cc(OCc2ccc(Cl)cc2)ccc1-c1n[nH]cc1Oc1ccccc1 [NUCC-0176247]		remaining activity at 200 µM (EMSA, 200 uM test compound): 18%
Cc1[nH]nc(-c2ccc(OCCc3ccc(Cl)cc3)cc2O)c1Oc1ccccc1 [NUCC-0176262]		remaining activity at 200 µM (EMSA, 200 uM test compound): 54%
CCc1ccc(Oc2c(-c3ccc(OCc4ccc(Cl)cc4)cc3O)nn(C)c2CC)cc1 [compound 0196294]	106%	
CCc1ccc(Oc2c[nH]nc2-c2ccc(OCc3ccc(Cl)cc3)cc2O)cc1 [NUCC-0176243]		remaining activity at 200 µM (EMSA, 200 uM test compound): 19%
CCc1ccc(Oc2c(-c3ccc(OCCc4ccc(Cl)cc4)cc3O)n[nH]c2C(F)(F)F)cc1 [compound 0196357]	28%	
Cn1nc(-c2ccc(OCc3ccc(Cl)cc3)cc2O)cc1C(F)(F)F [compound 0196314]	76%	
Cn1cc(-c2ccc(F)cc2)c(-c2ccc(OCc3ccc(Cl)cc3)cc2O)n1 [compound 0196349]	135%	
CCc1ccc(Oc2cn(C)nc2-c2ccc(OCc3ccc(Cl)cc3)cc2O)cc1 [NUCC-0176260]		remaining activity at 200 µM (EMSA, 200 uM test compound): 113%
CCc1ccc(Oc2c(-c3ccc(O)cc3O)nn(C)c2C(F)(F)F)cc1 [compound 0198411]		Bound DNA (%) (100uM) (EMSA, 100 uM test compound): 30%
CCc1ccc(Oc2c(-c3ccc(OCc4ccc(Cl)cc4)cc3)nn(C)c2C(F)(F)F)cc1 [compound 0196353]	122%	
Cc1[nH]nc(-c2ccc(OCc3cnn(C)c3)cc2O)c1Oc1ccccc1 [NUCC-0176249]		remaining activity at 200 µM (EMSA, 200 uM test compound): 85%
Oc1cc(OCc2ccc(Cl)cc2)ccc1-c1n[nH]c(C(F)(F)F)c1Oc1cccc(F)c1 [compound 0196301]	43%	
CCc1ccc(Oc2c(-c3ccc(OCc4ccc(Cl)c(Cl)c4)cc3O)n[nH]c2C(F)(F)F)cc1 [compound 0196355]	25%	
CCc1ccc(Oc2c(-c3ccc(OCc4ccc(Cl)cc4)cc3OC)nn(C)c2C(F)(F)F)cc1 [compound 0196352]	65%	
Oc1cc(OCc2ccncc2)ccc1-c1n[nH]cc1Oc1ccccc1 [NUCC-0176251]		remaining activity at 200 µM (EMSA, 200 uM test compound): 62%
Cc1ccc(C)c(Oc2c[nH]nc2-c2ccc(OCc3cccc(Cl)c3)cc2O)c1 [compound 0196286]	65%	
Cc1ccc(C)c(Oc2c[nH]nc2-c2ccc(OCc3ccc(Cl)cc3)cc2O)c1 [compound 0196284]	59%	
Oc1cc(OCc2ccc(Cl)cc2)ccc1-c1n[nH]c(C(F)(F)F)c1-c1ccc(F)cc1 [compound 0196347]	47%	
CCc1ccc(Oc2c[nH]nc2-c2ccc(OCC3CCCCC3)cc2O)cc1 [NUCC-0176256]		Bound DNA (%) (200uM) (EMSA, 200 uM test compound): 100%; % Fraction Bound (Table 1, concentration not printed in the table (FIG. 5 and 6 legends: 200 μM test compounds)): 9.1%
Oc1cc(OCc2ccc(Cl)cc2)ccc1-c1n[nH]c(C(F)(F)F)c1-c1cccnc1 [compound 0196366]	79%	
CCc1ccc(Oc2c[nH]nc2-c2ccc(OCc3ccncc3)cc2O)cc1 [NUCC-0176254]		remaining activity at 200 µM (EMSA, 200 uM test compound): 101%
CCc1ccc(Oc2c[nH]nc2-c2ccc(OCCc3ccc(Cl)cc3)cc2O)cc1 [NUCC-0176261]		remaining activity at 200 µM (EMSA, 200 uM test compound): 25%
CCc1ccc(Oc2c(-c3ccc(OCc4ccc(OC)cc4)cc3O)nn(C)c2C(F)(F)F)cc1 [compound 0196358]	98%	
Cn1cc(-c2ccccc2)c(-c2ccc(OCc3ccc(Cl)cc3)cc2O)n1 [compound 0198294]	97%	

More lines, main results first:

remaining activity at 100 µM (EMSA, 100 uM test compound)	Compound	also measured
62%	Cn1nc(C(F)(F)F)cc1-c1ccc(OCc2ccc(Cl)cc2)cc1Cl [compound 0200744]	
102%	Oc1ccc(OCc2ccc(Cl)cc2)cc1-c1cc(C(F)(F)F)n[nH]1 [compound 0200573]	
92%	NC(=O)c1ccc(Nc2ccc(-c3cc(C(F)(F)F)[nH]n3)c(O)c2)cc1 [compound 0200563]	remaining activity at 50 µM (EMSA): 101%
97%	Cn1nc(C(F)(F)F)cc1-c1ccc(NCc2ccc(Cl)cc2)cn1 [compound 0200691]	remaining activity at 50 µM (EMSA): 94%
79%	Oc1cc(OCc2ccc(Cl)cc2)ccc1-c1cc(C(F)(F)F)nc(-c2cc(C(F)(F)F)cc(C(F)(F)F)c2)n1 [compound 0200501]	remaining activity at 50 µM (EMSA): 91%
2%	Cn1nc(C(F)(F)F)c(-c2cccc(C#N)c2)c1-c1ccc(OCc2ccc(Cl)cc2)cc1O [compound 0198399]	
90%	Cc1nn(C)c(-c2ccc(OCc3ccc(Cl)cc3)cc2O)c1-c1ccccc1 [compound 0198299]	
24%	Cn1nc(-c2ccc(Nc3ccc(Cl)cc3)cc2O)cc1C(F)(F)F [compound 0200492]	remaining activity at 50 µM (EMSA): 92%
86%	COc1cccc(-c2c(C(F)(F)F)nn(C)c2-c2ccc(OCc3ccc(Cl)cc3)cc2O)c1 [compound 0198310]	
102%	NC(=O)c1cc(-c2ccc(Nc3ccc(Cl)cc3)cc2O)n[nH]1 [compound 0200677]	
93%	Cn1nc(-c2ccc(Nc3ccc(C(N)=O)cc3)cc2O)cc1C(F)(F)F [compound 0200564]	remaining activity at 50 µM (EMSA): 103%
9%	Cn1nc(-c2ccc(OCc3ccc(Cl)cc3)cc2O)c(-c2cccc(C#N)c2)c1C(N)=O [compound 0200558]	remaining activity at 50 µM (EMSA): 20%
77%	NC(=O)c1cccc(-c2c(-c3ccc(OCc4ccc(Cl)cc4)cc3O)n[nH]c2C(F)(F)F)c1 [compound 0198401]	
91%	Oc1cc(Nc2ccc(-n3ccnc3)cc2)ccc1-c1cc(C(F)(F)F)[nH]n1 [compound 0200569]	remaining activity at 50 µM (EMSA): 89%
105%	COc1cccc(-c2c(C)nn(C)c2-c2ccc(OCc3ccc(Cl)cc3)cc2O)c1 [compound 0198313]	
56%	Cc1cc(C)cc(-c2c[nH]nc2-c2ccc(OCc3ccc(Cl)cc3)cc2O)c1 [compound 0198352]	
106%	COc1cccc(-c2cn(C)nc2-c2ccc(OCc3ccc(Cl)cc3)cc2O)c1 [compound 0198326]	
93%	CN1CCN(c2ccc(-c3cc(C(F)(F)F)n(C)n3)c(O)c2)CC1 [compound 0200568]	remaining activity at 50 µM (EMSA): 109%
52%	Oc1cc(OCc2ccc(Cl)cc2)ccc1-c1n[nH]cc1-c1cccnc1 [compound 0198320]	

remaining activity at 100 µM (EMSA, 100 uM test compound)	Compound	also measured
106%	COc1ccc(-c2cn(C)nc2-c2ccc(OCc3ccc(Cl)cc3)cc2O)cc1 [compound 0198305]	
105%	Cn1nc(-c2ccc(O)cc2O)c(-c2cc(C(F)(F)F)cc(C(F)(F)F)c2)c1C(F)(F)F [compound 0200724]	
3%	N#Cc1cccc(-c2c(-c3ccc(OCc4ccc(Cl)cc4)cc3O)n[nH]c2C(F)(F)F)c1 [compound 0198398]	
100%	CCc1nn(C)c(-c2ccc(OCc3ccc(Cl)cc3)cc2O)c1-c1ccccc1 [compound 0198302]	
105%	CCc1[nH]nc(-c2ccc(OCc3ccc(Cl)cc3)cc2O)c1-c1ccccc1 [compound 0198301]	
111%	COc1ccc(-c2c(-c3ccc(OCc4ccc(Cl)cc4)cc3O)nn(C)c2C)cc1 [compound 0198307]	
101%	Cn1nc(-c2ccc(N)cc2O)cc1C(F)(F)F [compound 0200498]	remaining activity at 50 µM (EMSA): 100%
96%	Cn1cc(-c2cccnc2)c(-c2ccc(OCc3ccc(Cl)cc3)cc2O)n1 [compound 0198321]	
92%	Cn1nc(C(F)(F)F)c(-c2ccc(C(F)(F)F)cc2)c1-c1ccc(OCc2ccc(Cl)cc2)cc1O [compound 0200726]	
126%	CCc1c(-c2cccc(OC)c2)c(-c2ccc(OCc3ccc(Cl)cc3)cc2O)nn1C [compound 0198317]	
0%	CCc1ccc(Oc2c(-c3ccc(O)cc3O)n[nH]c2C(F)(F)F)cc1 [compound 0198406]	
112%	Oc1cc(Nc2ccccn2)ccc1-c1cc(C(F)(F)F)[nH]n1 [compound 0200565]	remaining activity at 50 µM (EMSA): 112%
101%	CCc1nn(C)c(-c2ccc(OCc3ccc(Cl)cc3)cc2O)c1-c1cccc(OC)c1 [compound 0198316]	
93%	COc1ccccc1-c1cn(C)nc1-c1ccc(OCc2ccc(Cl)cc2)cc1O [compound 0198358]	
43%	Cn1nc(-c2ccc(OCc3ccc(Cl)cc3)cc2O)c(-c2ccc(C(F)(F)F)c(Cl)c2)c1C(F)(F)F [compound 0200729]	remaining activity at 50 µM (EMSA): 82%
36%	Cn1nc(C(F)(F)F)c(-c2cc(C(F)(F)F)cc(C(F)(F)F)c2)c1-c1ccc(O)cc1O [compound 0200723]	remaining activity at 50 µM (EMSA): 88%
53%	N#Cc1cccc(-c2c(-c3ccc(OCc4ccc(Cl)cc4)cc3O)n[nH]c2C(N)=O)c1 [compound 0200557]	remaining activity at 50 µM (EMSA): 46%
62%	COc1ccccc1-c1c[nH]nc1-c1ccc(OCc2ccc(Cl)cc2)cc1O [compound 0198357]	
